Assay results taken from PubChem BioAssay (NCI).
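The concentration for 50% growth inhibition is given as GI50. TGI denotes the concentration required for complete inhibition of growth.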

Key:
Experiment in all cases: inhibition of tumour cell growth, NCI panel, 384-well format
UO-31 renal = system: UO-31 renal
PC-3 prostate = system: PC-3 prostate
HL-60(TB) leukemia = system: HL-60(TB) leukemia
HCC-2998 colon = system: HCC-2998 colon
T-47D breast = system: T-47D breast
SR leukemia = system: SR leukemia
IGROV1 ovarian = system: IGROV1 ovarian
CCRF-CEM leukemia = system: CCRF-CEM leukemia
LOX IMVI melanoma = system: LOX IMVI melanoma
SF-295 CNS = system: SF-295 CNS
SF-539 CNS = system: SF-539 CNS
MDA-MB-435 melanoma = system: MDA-MB-435 melanoma
MDA-MB-231 breast = system: MDA-MB-231 breast
A549 NSCLC = system: A549 NSCLC
NCI-H23 lung = system: NCI-H23 lung
NCI-H322M lung = system: NCI-H322M lung
RPMI-8226 leukemia = system: RPMI-8226 leukemia
SW-620 colon = system: SW-620 colon
COLO 205 colon = system: COLO 205 colon
OVCAR-5 ovarian = system: OVCAR-5 ovarian
SK-MEL-28 melanoma = system: SK-MEL-28 melanoma
RXF 393 renal = system: RXF 393 renal
MCF7 breast = system: MCF7 breast
SN12C renal = system: SN12C renal
KM12 colon = system: KM12 colon
OVCAR-3 ovarian = system: OVCAR-3 ovarian
OVCAR-4 ovarian = system: OVCAR-4 ovarian
HOP-92 NSCLC = system: HOP-92 NSCLC
SK-OV-3 ovarian = system: SK-OV-3 ovarian

Question: `O=C(CC1(O)C(=O)Nc2c(Cl)ccc(Cl)c21)c1ccc(C2CC2)cc1` (configuration not stated) was tested. Which GI50 (UO-31 renal) did it give?
Answer: 10600 nM

Question: What about the TGI (UO-31 renal) of the same compound?
Answer: 23000 nM

Question: What about the GI50 (PC-3 prostate) of the same compound?
Answer: 372 nM

Question: What about the TGI (PC-3 prostate) of the same compound?
Answer: 14400 nM

Question: And the GI50 (HL-60(TB) leukemia)?
Answer: 37.7 nM

Question: What about the TGI (HL-60(TB) leukemia) of the same compound?
Answer: 120 nM

Question: What about the GI50 (HCC-2998 colon) of the same compound?
Answer: 277 nM

Question: And the TGI (HCC-2998 colon)?
Answer: 4610 nM

Question: What about the GI50 (T-47D breast) of the same compound?
Answer: 323 nM

Question: What about the TGI (T-47D breast) of the same compound?
Answer: 18200 nM

Question: What about the GI50 (SR leukemia) of the same compound?
Answer: 16.9 nM

Question: What about the TGI (SR leukemia) of the same compound?
Answer: 33.7 nM

Question: What about the GI50 (IGROV1 ovarian) of the same compound?
Answer: 882 nM

Question: And the TGI (IGROV1 ovarian)?
Answer: 17000 nM

Question: What about the GI50 (CCRF-CEM leukemia) of the same compound?
Answer: 130 nM

Question: What about the TGI (CCRF-CEM leukemia) of the same compound?
Answer: 262 nM

Question: And the GI50 (LOX IMVI melanoma)?
Answer: 434 nM

Question: And the TGI (LOX IMVI melanoma)?
Answer: 4650 nM

Question: What about the GI50 (SF-295 CNS) of the same compound?
Answer: 112 nM

Question: What about the TGI (SF-295 CNS) of the same compound?
Answer: 853 nM

Question: And the GI50 (SF-539 CNS)?
Answer: 206 nM

Question: What about the TGI (SF-539 CNS) of the same compound?
Answer: 907 nM

Question: And the GI50 (MDA-MB-435 melanoma)?
Answer: 24.5 nM

Question: What about the TGI (MDA-MB-435 melanoma) of the same compound?
Answer: 59.6 nM

Question: What about the GI50 (MDA-MB-231 breast) of the same compound?
Answer: 182 nM

Question: And the TGI (MDA-MB-231 breast)?
Answer: 16300 nM

Question: What about the GI50 (A549 NSCLC) of the same compound?
Answer: 546 nM

Question: And the TGI (A549 NSCLC)?
Answer: 13800 nM

Question: What about the GI50 (NCI-H23 lung) of the same compound?
Answer: 192 nM

Question: What about the TGI (NCI-H23 lung) of the same compound?
Answer: 759 nM

Question: And the GI50 (NCI-H322M lung)?
Answer: 845 nM

Question: And the TGI (NCI-H322M lung)?
Answer: 18000 nM

Question: And the GI50 (RPMI-8226 leukemia)?
Answer: 133 nM

Question: And the TGI (RPMI-8226 leukemia)?
Answer: 271 nM

Question: And the GI50 (SW-620 colon)?
Answer: 45.7 nM

Question: What about the TGI (SW-620 colon) of the same compound?
Answer: 15500 nM

Question: What about the GI50 (COLO 205 colon) of the same compound?
Answer: 124 nM

Question: What about the TGI (COLO 205 colon) of the same compound?
Answer: 448 nM

Question: What about the GI50 (OVCAR-5 ovarian) of the same compound?
Answer: 900 nM

Question: And the TGI (OVCAR-5 ovarian)?
Answer: 17700 nM

Question: And the GI50 (SK-MEL-28 melanoma)?
Answer: 221 nM

Question: And the TGI (SK-MEL-28 melanoma)?
Answer: 18900 nM

Question: And the GI50 (RXF 393 renal)?
Answer: 155 nM

Question: What about the TGI (RXF 393 renal) of the same compound?
Answer: 793 nM

Question: And the GI50 (MCF7 breast)?
Answer: 111 nM

Question: What about the TGI (MCF7 breast) of the same compound?
Answer: 13500 nM

Question: What about the GI50 (SN12C renal) of the same compound?
Answer: 575 nM

Question: What about the TGI (SN12C renal) of the same compound?
Answer: 20100 nM

Question: What about the GI50 (KM12 colon) of the same compound?
Answer: 74.7 nM

Question: And the TGI (KM12 colon)?
Answer: 2770 nM

Question: What about the GI50 (OVCAR-3 ovarian) of the same compound?
Answer: 73.1 nM

Question: And the TGI (OVCAR-3 ovarian)?
Answer: 286 nM

Question: And the GI50 (OVCAR-4 ovarian)?
Answer: 369 nM

Question: What about the TGI (OVCAR-4 ovarian) of the same compound?
Answer: 7590 nM

Question: And the GI50 (HOP-92 NSCLC)?
Answer: 210 nM

Question: What about the TGI (HOP-92 NSCLC) of the same compound?
Answer: 11000 nM

Question: What about the GI50 (SK-OV-3 ovarian) of the same compound?
Answer: 238 nM
